Measured values taken from paper PMC11680164 (Viruses, 2024).
“Also recorded” adds a separate entry of the source.

System: SARS-CoV-2 P.1 lineage (gamma variant)
Parameters: species or system K18-hACE2 mice
Settings: in vivo

COC(=O)N[C@H](C(=O)N1CCC[C@H]1c1nc(-c2ccc(-c3ccc(-c4c[nH]c([C@@H]5CCCN5C(=O)[C@@H](NC(=O)OC)C(C)C)n4)cc3)cc2)c[nH]1)C(C)C [daclatasvir]
mouse survival: increased mouse survival; also recorded: did not significantly affect | LDH levels in bronchoalveolar lavage (BAL) fluid (cell death, lung necrosis) (mouse): decreased levels | SARS-CoV-2-induced increase in IL-6 (mouse): prevented | SARS-CoV-2-induced increase in KC (mouse): prevented | SARS-CoV-2-induced increase in TNF-α (mouse): prevented | cellular infiltration in BAL fluid (mouse): reduced cellular infiltration | double-stranded RNA (dsRNA) levels in the lungs (mouse): lower levels | loss of body weight (mouse): reduced | lung parenchyma affected by alveolar collapse (mouse): ~10% | reduction of SARS-CoV-2 RNA levels in the lungs (mouse): up to 3 log10 | reduction of SARS-CoV-2 titers in the lungs (mouse): up to 3 log10 | virus-induced score of clinical severity (mouse): reduced
